Test results taken from patent publication US4570013A, “Biphenylylalkanoic acid derivatives, methods of preparation and pharmaceutical compositions therefrom” (Dr. L. Zambeletti S.p.A., priority 1983, dated 1986).
Like-named read-outs stand apart in the source and are kept apart here.

Tests used:
[1] = test system: Hyperthermia caused by brewer's yeast in rats; assay: brewer's yeast hyperthermia (method of C. Winter), antipyretic activity; type: in vivo; settings: for ED50: Rattus norvegicus, po
Source text: The antipyretic activity has been studied according to the method of C. Winter, Toxicol. and Appl. Pharmacol., 5, 247 (1963), in rats, by determining the ability of the substance to reduce the increase of body temperature caused by the subcutaneous administration of brewer's yeast.

[2] = test system: Salmonella thyphimurium TA 1535; TA 1538; TA 100; TA 98; assay: Ames test, mutagenic action; type: cell-based; settings: with and without metabolic activation, up to 5000 μg per plate
[3] = test system: aggregating action of arachidonic acid; assay: ex vivo study of aggregating action of arachidonic acid after oral administration; type: in vivo; settings: guinea pigs, oral dose equal to antiinflammatory ED50
[4] = test system: oedema induced in the rats' paw by intradermic injection of carrageenin; assay: carrageenin-induced paw oedema (method of Winter), antiinflammatory activity; type: in vivo; settings: Rattus norvegicus, po
acute toxicity (DL50) = settings: mouse, in vivo
Source text: Finally, the following values of DL50 have been determined in mice for compound Ia: […]

[5] = test system: protective activity in the hot plate test; assay: hot plate test, central analgesic activity; type: in vivo; settings: up to 200 mg/kg^-1 orally, mice
[6] = test system: platelet aggregation induced by arachidonic acid; assay: platelet aggregation induced by arachidonic acid in vitro (method of Born); type: cell-based, guinea pigs; settings: guinea pig platelet-enriched plasma
Method: The activity of compound Ia on the metabolism of arachidonic acid has been studied in virto according to the method described by B. Fjalland, J. Pharm. Pharmacol., 26, 448 (1974). In these tests the compound being examined is capable of inhibiting the synthesis of prostaglandin and thromboxane caused by arachidonic acid (AA) incubated with lung tissue of guinea pigs (IC50 =0.05 mM). The activity on the platelet aggregation induced by arachidonic acid has been determined in vitro on plasma enriched with platelets of guinea pigs according to the method described by G. V. R. Born, Nature 194, 927 (1962).

in vivo = settings: rat, po
[7] = gastrolesive action after single doses; settings: rat, in vivo
[8] = test system: writhings caused by 2-phenylparabenzoquinone in mice; assay: writhing test (method of Siegmund), 2-phenylparabenzoquinone, analgesic activity; type: in vivo, Swiss mice; settings: for Contorsions % (change vs controls) / No. Contorsions: orally at ED50: biphenylylacetic acid 12, Ia 32 mg/kg; for ED50: Mus musculus, po
Source text: The analgesic activity has been studied according to the method described by Siegmund (E. Siegmund et al, Proc. Soc. Exptl. Biol. Med., 95, 729 (1957)), according to which the algogenic stimulus consists of the intraperitoneal injection of 2-phenylparabenzoquinone and the algesia manifests itself in repeated abdominal contractions with an extension of the rear limbs and contorsions of the body ("writhing test").

For COc1ccccc1OCC(O)COC(=O)Cc1ccc(-c2ccccc2)cc1 (stereo not drawn) [Compound Ia, 1-Biphenylylacetoxy-3-(2-methoxyphenoxy)-propan-2-ol], the “Temperature after administration of the substance, t” value (“Temperature after administration” below) ([1]; 6 mg/kg os, 1 h) was 38.01±0.07 °C, the “Temperature change Δt after administration of the substance” value (“Temperature change Δt” for short) ([1]; 6 mg/kg os, 1 h) was -0.63 °C and the “Temperature after administration” value ([1]; 6 mg/kg os, 2 h) was 37.71±0.09 °C. For the same compound, the “Temperature change Δt” value ([1]; 6 mg/kg os, 2 h) was -0.75 °C, the “P/S, ratio of protected animals with respect to total screened animals” value (“P/S, ratio of protected animals” for short) ([1]; 6 mg/kg os, 3 h) was 1/10 and the “Temperature after administration” value ([1]; 6 mg/kg os, 3 h) was 37.70 °C. The “Temperature change Δt” value ([1]; 6 mg/kg os, 3 h) was -0.69 °C, the “Temperature after administration” value ([1]; 6 mg/kg os, 4 h) was 37.85±0.14 °C and the “Temperature change Δt” value ([1]; 6 mg/kg os, 4 h) was -0.45 °C. The “Temperature after administration” value ([1]; 6 mg/kg os, 5 h) was 38.07±0.15 °C, the “Temperature change Δt” value ([1]; 6 mg/kg os, 5 h) was -0.19 °C and the “Temperature after administration” value ([1]; 6 mg/kg os, 6 h) was 38.10 °C. For the same compound, the “Temperature change Δt” value ([1]; 6 mg/kg os, 6 h) was -0.14 °C, the “Temperature after administration” value ([1]; 12 mg/kg os, 1 h) was 37.81±0.06 °C and the “Temperature change Δt” value ([1]; 12 mg/kg os, 1 h) was -0.83 °C. The “Temperature after administration” value ([1]; 12 mg/kg os, 2 h) was 37.40±0.05 °C, the “Temperature change Δt” value ([1]; 12 mg/kg os, 2 h) was -1.06 °C and the “P/S, ratio of protected animals” value ([1]; 12 mg/kg os, 3 h) was 4/10. For the same compound, the “Temperature after administration” value ([1]; 12 mg/kg os, 3 h) was 37.32±0.08 °C, the “Temperature change Δt” value ([1]; 12 mg/kg os, 3 h) was -1.07 °C and the “Temperature after administration” value ([1]; 12 mg/kg os, 4 h) was 37.41±0.07 °C. For the same compound, the “Temperature change Δt” value ([1]; 12 mg/kg os, 4 h) was -0.89 °C, the “Temperature after administration” value ([1]; 12 mg/kg os, 5 h) was 37.66±0.09 °C and the “Temperature change Δt” value ([1]; 12 mg/kg os, 5 h) was -0.50 °C. For the same compound, the “Temperature after administration” value ([1]; 12 mg/kg os, 6 h) was 37.88±0.07 °C, the “Temperature change Δt” value ([1]; 12 mg/kg os, 6 h) was -0.36 °C and the “Temperature after administration” value ([1]; 24 mg/kg os, 1 h) was 37.66±0.05 °C. For the same compound, the “Temperature change Δt” value ([1]; 24 mg/kg os, 1 h) was -0.98 °C, the “Temperature after administration” value ([1]; 24 mg/kg os, 2 h) was 37.31±0.05 °C and the “Temperature change Δt” value ([1]; 24 mg/kg os, 2 h) was -1.15 °C. For the same compound, the “P/S, ratio of protected animals” value ([1]; 24 mg/kg os, 3 h) was 8/10, the “Temperature after administration” value ([1]; 24 mg/kg os, 3 h) was 37.13±0.06 °C and the “Temperature change Δt” value ([1]; 24 mg/kg os, 3 h) was -1.26 °C. The “Temperature after administration” value ([1]; 24 mg/kg os, 4 h) was 37.16±0.06 °C, the “Temperature change Δt” value ([1]; 24 mg/kg os, 4 h) was -1.14 °C and the “Temperature after administration” value ([1]; 24 mg/kg os, 5 h) was 37.34±0.05 °C. For the same compound, the “Temperature change Δt” value ([1]; 24 mg/kg os, 5 h) was -0.92 °C, the “Temperature after administration” value ([1]; 24 mg/kg os, 6 h) was 37.55±0.06 °C and the “Temperature change Δt” value ([1]; 24 mg/kg os, 6 h) was -0.69 °C. The ED50 ([1]; rats, orally, read-out: ED50, antipyretic activity) was 14 mg/kg, the “duration of antipyretic activity” value ([1]; rats, orally) was “continues after the sixth hour” and the “onset of antipyretic activity after the treatment” value ([1]; rats, orally) was “within one hour after the treatment”. The “mutagenic action (Ames test)” value [2] was “has not shown any mutagenic action”, the “duration of decrease in aggregating action of arachidonic acid” value [3] was “remains up to the fifth hour” and the “start of decrease in aggregating action of arachidonic acid after administration” value [3] was “starts three hours after the administration”. The ED50 ([4]; orally, read-out: effective dose ED50, antiedemigenic (antiinflammatory) activity) was 22.5 mg/kg, the LD50 (acute toxicity (DL50); ip, read-out: DL50 ip) was 260 mg/kg and the LD50 (acute toxicity (DL50); po, read-out: DL50 orally) was 3330 mg/kg. For the same compound, the “protective activity in the hot plate test (central analgesic activity)” value [5] was “has not shown any protective activity”, the IC50 ([6]; Cavia porcellus, read-out: IC50, anti aggregating activity) was 123 µM and the “anti aggregating activity, concentration dependence” value [6] was “proportional to the concentration used”. For the same compound, the TD50 (in vivo) was 61.7 mg/kg, the selectivity ratio [7] was 2 to 4 and the “onset of analgesic activity after administration” value ([8]; 32 mg/kg orally, mice) was 15 min. The “Contorsions % (change vs controls)” value ([8]; 5 minutes) was -28%, the “No. Contorsions” value ([8]; 5 minutes) was 33.1 ± 4.1 and the “Contorsions % (change vs controls)” value ([8]; 15 minutes) was -33%. The “No. Contorsions” value ([8]; 15 minutes) was 35.1 ± 3.4, the “Contorsions % (change vs controls)” value ([8]; 30 minutes) was -54% and the “No. Contorsions” value ([8]; 30 minutes) was 22.7 ± 2.4. The “Contorsions % (change vs controls)” value ([8]; 1 hour) was -47%, the “No. Contorsions” value ([8]; 1 hour) was 26.8 ± 3.3 and the “Contorsions % (change vs controls)” value ([8]; 2 hours) was -46%. The “No. Contorsions” value ([8]; 2 hours) was 25.4 ± 3.8, the “Contorsions % (change vs controls)” value ([8]; 3 hours) was -44% and the “No. Contorsions” value ([8]; 3 hours) was 27.6 ± 3.4. For the same compound, the “Contorsions % (change vs controls)” value ([8]; 4 hours) was -31%, the “No. Contorsions” value ([8]; 4 hours) was 33.5 ± 3.6 and the “Contorsions % (change vs controls)” value ([8]; 5 hours) was -1%. For the same compound, the “No. Contorsions” value ([8]; 5 hours) was 45.0 ± 3.2 and the ED50 ([8]; mice, orally, read-out: ED50, analgesic activity (writhing test)) was 32 mg/kg.

COc1ccc2cc(C(C)C(=O)O)ccc2c1 (stereo not drawn) [Naproxen, 6-methoxy-α-methyl-2-naphthaleneacetic acid, reference compound] gave an ED50 ([1]; rats, os, read-out: Antipyretic activity (temperature increase by brewer's yeast, in rats) ED50) of 112 mg/kg, an ED50 ([4]; os, read-out: Antiinflammatory activity (oedema caused by carrageenin in rats) ED50) of 24 mg/kg and a TD50 ([7]; po) of 17 mg/kg. It also gave an ED50 ([8]; read-out: Analgesic activity (against pain caused by 2-phenyl-p-benzo-quinone in mice) ED50) of 20 mg/kg.
